For one data set, the system named is CCRF S-180. Put plainly: Antitumor activity against mouse S180 cells xenografted in mouse assessed as reduction of tumor weight at 100 umol/kg/day, ip administered after 48 hrs of tumor inoculation qd for 8 days. The class given is functional. The arrangement: scale not given: the % may be the effect or the level left.
The next data set has as its system Liver microsomes. Put plainly: Drug metabolism in Wistar rat liver microsomes assessed as 1-oxo-AC04 after 60 mins by LC-MS/MS analysis. The class given is ADME, Microsome. To be noted: 1 h. (Liver microsomes are a subcellular fraction often used to study metabolism.)
The test system of the next data set is Plasma. Briefly: Drug metabolism in Wistar rat plasma assessed as 1-oxo-AC04 at 1.5 mg/kg, iv administered as single dose after 120 hrs by LC-MS/MS analysis. The note with it: in vivo. Also noted: dose 1.5 mg/kg, route intravenous. Format: ADME, organism-based.

As to `Cc1ccc(CN2C(=O)S/C(=C\c3c4ccccc4nc4ccccc34)C2=O)cc1`, the Activity in the data set on CCRF S-180 turned out to be 85%. For the same compound, the Drug metabolism result in the data set on Liver microsomes and with Plasma was “Active” each time.

The values above are taken from ChEMBL document CHEMBL1833928, “Metabolism evaluation of the anticancer candidate AC04 by biomimetic oxidative model and rat liver microsomes” (Eur J Med Chem, 2011).
